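Each compound was tested at five concentrations against cells in 96-well plates for 48 hours. TGI: total growth inhibition.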
Legend:
Test in all cases: NCI anticancer screen, dose series, 48 h
PC-3 prostate = system: PC-3 prostate
SW-620 colon = system: SW-620 colon
MDA-MB-435 = system: MDA-MB-435
A498 renal = system: A498 renal
SF-295 CNS = system: SF-295 CNS
SF-539 CNS = system: SF-539 CNS
TK-10 renal = system: TK-10 renal
SK-OV-3 ovarian = system: SK-OV-3 ovarian
BT-549 breast = system: BT-549 breast
SNB-19 CNS = system: SNB-19 CNS

For `c1ccc(/C(=N/Nc2ccccn2)c2cccnn2)cc1`, the TGI (PC-3 prostate) was over 100 µM, the TGI (SW-620 colon) was over 78.8 µM and the TGI (MDA-MB-435) was over 100 µM. The TGI (A498 renal) was over 100 µM, the TGI (SF-295 CNS) was 29.7 µM and the TGI (SF-539 CNS) was 24.9 µM. It also gave a TGI (TK-10 renal) of over 100 µM, a TGI (SK-OV-3 ovarian) of over 47.6 µM and a TGI (BT-549 breast) of over 100 µM. The TGI (SNB-19 CNS) was over 86.9 µM.

Work on `Cn1c(=O)c2c(=O)cc(N)[nH]c2n(C)c1=O` yielded a TGI (PC-3 prostate) of over 100 µM, a TGI (SW-620 colon) of over 100 µM and a TGI (MDA-MB-435) of over 100 µM. It also gave a TGI (A498 renal) of over 100 µM, a TGI (SF-295 CNS) of over 100 µM and a TGI (SF-539 CNS) of over 100 µM. It also gave a TGI (TK-10 renal) of over 100 µM, a TGI (SK-OV-3 ovarian) of over 100 µM and a TGI (BT-549 breast) of over 100 µM. For the same molecule, the TGI (SNB-19 CNS) was over 100 µM.

In the case of `CCOC(=O)c1cc([N+](=O)[O-])c(Sc2ncnc3nc[nH]c23)c([N+](=O)[O-])c1`, the TGI (PC-3 prostate) is reported as 27.9 µM, the TGI (SW-620 colon) is reported as 5.25 µM and the TGI (MDA-MB-435) is reported as 14.7 µM. It also gave a TGI (A498 renal) of 25.6 µM, a TGI (SF-295 CNS) of over 35.6 µM and a TGI (SF-539 CNS) of 13.4 µM. It also gave a TGI (TK-10 renal) of 5.81 µM, a TGI (SK-OV-3 ovarian) of 5.04 µM and a TGI (BT-549 breast) of 20.1 µM. The TGI (SNB-19 CNS) was 32.4 µM.

`C=C1CC[C@@H]2[C@](C)(COC(=O)CCC(=O)O)CCC[C@@]2(C)[C@@H]1CCC1=CC(=O)OC1` showed a TGI (PC-3 prostate) of over 100 µM, a TGI (SW-620 colon) of over 100 µM and a TGI (MDA-MB-435) of over 100 µM. The TGI (A498 renal) was over 100 µM, the TGI (SF-295 CNS) was over 100 µM and the TGI (SF-539 CNS) was over 100 µM. It also gave a TGI (TK-10 renal) of over 100 µM, a TGI (SK-OV-3 ovarian) of over 100 µM and a TGI (BT-549 breast) of over 100 µM. It also gave a TGI (SNB-19 CNS) of over 100 µM.

For `C=C(C)CCC(O)[C@](C)(O)[C@H]1[C@H](O)C[C@@]2(C)[C@@H]3CCc4c(cc(OC5OC(CO)C(O)C(O)C5O)c(O)c4C)C3(C)C(=O)C[C@]12C` (stereo not given in full), the TGI (PC-3 prostate) was over 100 µM, the TGI (SW-620 colon) was over 100 µM and the TGI (MDA-MB-435) was over 100 µM. The TGI (A498 renal) was over 100 µM, the TGI (SF-295 CNS) was over 100 µM and the TGI (SF-539 CNS) was over 100 µM. For the same molecule, the TGI (TK-10 renal) was over 100 µM, the TGI (SK-OV-3 ovarian) was over 100 µM and the TGI (BT-549 breast) was over 100 µM. The TGI (SNB-19 CNS) was over 100 µM.

For `CC1CC(=O)Nc2ccccc2N1C(=O)C1CC1` (stereo not given), the TGI (PC-3 prostate) was over 100 µM, the TGI (SW-620 colon) was over 100 µM and the TGI (MDA-MB-435) was over 100 µM. The TGI (A498 renal) was over 100 µM, the TGI (SF-295 CNS) was over 100 µM and the TGI (SF-539 CNS) was over 100 µM. It also gave a TGI (TK-10 renal) of over 100 µM, a TGI (SK-OV-3 ovarian) of over 100 µM and a TGI (BT-549 breast) of over 100 µM. For the same molecule, the TGI (SNB-19 CNS) was over 100 µM.

Work on `Cc1ccc(S(=O)(=O)Nn2c(S)c(C#N)c(-c3ccc(Cl)cc3)c(C#N)c2=O)cc1` yielded a TGI (PC-3 prostate) of over 100 µM, a TGI (SW-620 colon) of 51.7 µM and a TGI (MDA-MB-435) of 86.9 µM. It also gave a TGI (A498 renal) of over 100 µM, a TGI (SF-295 CNS) of over 100 µM and a TGI (SF-539 CNS) of 39.6 µM. The TGI (TK-10 renal) was 76 µM, the TGI (SK-OV-3 ovarian) was over 100 µM and the TGI (BT-549 breast) was 41.9 µM. The TGI (SNB-19 CNS) was over 100 µM.

`CC(C)C(=O)/C=C/c1c(Cl)cccc1Cl` was tested, and the TGI (PC-3 prostate) was 24.4 µM, the TGI (SW-620 colon) was 9.13 µM and the TGI (MDA-MB-435) was 14.7 µM. It also gave a TGI (A498 renal) of 35.5 µM, a TGI (SF-295 CNS) of 24.3 µM and a TGI (SF-539 CNS) of 7.44 µM. The TGI (TK-10 renal) was 24.5 µM, the TGI (SK-OV-3 ovarian) was 9.27 µM and the TGI (BT-549 breast) was 9.81 µM. The TGI (SNB-19 CNS) was 22.6 µM.

Work on `CC(=O)OCC1OC(O[C@H]2C=C[C@@H](C(=O)OCc3ccccc3)n3c(=O)n(-c4ccccc4)c(=O)n32)C(OC(C)=O)C(OC(C)=O)C1OC(C)=O` (stereo not given in full) yielded a TGI (PC-3 prostate) of 13 µM, a TGI (SW-620 colon) of 17 µM and a TGI (MDA-MB-435) of 4.45 µM. For the same molecule, the TGI (A498 renal) was 5.33 µM, the TGI (SF-295 CNS) was 25.3 µM and the TGI (SF-539 CNS) was 3.21 µM. It also gave a TGI (TK-10 renal) of 3.92 µM, a TGI (SK-OV-3 ovarian) of 33.6 µM and a TGI (BT-549 breast) of 3.29 µM. The TGI (SNB-19 CNS) was 30.1 µM.

With `COCCCNc1c2ccccc2nc2ccccc12` the TGI (PC-3 prostate) was 5.68 µM, the TGI (SW-620 colon) was 12.6 µM and the TGI (MDA-MB-435) was 12.7 µM. It also gave a TGI (A498 renal) of 15.2 µM, a TGI (SF-295 CNS) of 14.9 µM and a TGI (SF-539 CNS) of 8.59 µM. The TGI (TK-10 renal) was 89.8 µM, the TGI (SK-OV-3 ovarian) was 12.4 µM and the TGI (BT-549 breast) was 53.2 µM. It also gave a TGI (SNB-19 CNS) of 6.41 µM.

With `CON[N+]([O-])=NC(C)C` the TGI (PC-3 prostate) was over 100 µM, the TGI (SW-620 colon) was over 100 µM and the TGI (MDA-MB-435) was over 100 µM. It also gave a TGI (A498 renal) of over 100 µM, a TGI (SF-295 CNS) of over 100 µM and a TGI (SF-539 CNS) of over 100 µM. The TGI (TK-10 renal) was over 100 µM, the TGI (SK-OV-3 ovarian) was over 100 µM and the TGI (BT-549 breast) was over 100 µM. For the same molecule, the TGI (SNB-19 CNS) was over 100 µM.

`O=C(/C=C/c1cccc(Br)c1)N1CCN(CCOC(c2ccccc2)c2ccccc2)CC1` was tested, and the TGI (PC-3 prostate) was over 100 µM, the TGI (SW-620 colon) was over 100 µM and the TGI (MDA-MB-435) was over 100 µM. The TGI (A498 renal) was over 100 µM, the TGI (SF-295 CNS) was over 100 µM and the TGI (SF-539 CNS) was 39.1 µM. For the same molecule, the TGI (TK-10 renal) was over 100 µM, the TGI (SK-OV-3 ovarian) was over 100 µM and the TGI (BT-549 breast) was 84.2 µM. The TGI (SNB-19 CNS) was over 100 µM.

With `CC(C)CC1N=C(OCc2ccccc2)OC1=O` (stereo not given) the TGI (PC-3 prostate) was over 100 µM, the TGI (SW-620 colon) was over 100 µM and the TGI (MDA-MB-435) was over 100 µM. The TGI (A498 renal) was over 100 µM, the TGI (SF-295 CNS) was over 100 µM and the TGI (SF-539 CNS) was over 100 µM. The TGI (TK-10 renal) was over 100 µM, the TGI (SK-OV-3 ovarian) was over 100 µM and the TGI (BT-549 breast) was over 100 µM. It also gave a TGI (SNB-19 CNS) of over 100 µM.

With `COC(=O)C1Cc2cc3c(cc2C1)CCC3` the TGI (PC-3 prostate) was over 100 µM, the TGI (SW-620 colon) was over 100 µM and the TGI (MDA-MB-435) was over 100 µM. For the same molecule, the TGI (A498 renal) was over 100 µM, the TGI (SF-295 CNS) was over 100 µM and the TGI (SF-539 CNS) was over 100 µM. For the same molecule, the TGI (TK-10 renal) was over 100 µM, the TGI (SK-OV-3 ovarian) was over 100 µM and the TGI (BT-549 breast) was over 100 µM. For the same molecule, the TGI (SNB-19 CNS) was over 100 µM.

`CN(C)CC(C)(C)CN1c2ccccc2Sc2ccccc21` showed a TGI (PC-3 prostate) of 25.5 µM, a TGI (SW-620 colon) of 28.3 µM and a TGI (MDA-MB-435) of 26.5 µM. The TGI (A498 renal) was 26.4 µM, the TGI (SF-295 CNS) was 26.8 µM and the TGI (SF-539 CNS) was 34.3 µM. For the same molecule, the TGI (TK-10 renal) was 26.9 µM, the TGI (SK-OV-3 ovarian) was 26 µM and the TGI (BT-549 breast) was 27.6 µM. For the same molecule, the TGI (SNB-19 CNS) was 29.5 µM.

Molecule `CCOC(=O)CC1Nc2ccccc2C12CCc1c([nH]c3ccccc13)C2C(=O)OCC` (stereo not given) has a TGI (PC-3 prostate) of over 100 µM, a TGI (SW-620 colon) of over 100 µM and a TGI (MDA-MB-435) of over 100 µM. For the same molecule, the TGI (A498 renal) was over 100 µM, the TGI (SF-295 CNS) was 22.5 µM and the TGI (SF-539 CNS) was over 100 µM. For the same molecule, the TGI (TK-10 renal) was over 100 µM, the TGI (SK-OV-3 ovarian) was over 100 µM and the TGI (BT-549 breast) was over 100 µM. It also gave a TGI (SNB-19 CNS) of over 100 µM.

`Cn1c(=O)cc(Nc2ccc(N)cc2)[nH]c1=O` gave a TGI (PC-3 prostate) of over 100 µM, a TGI (SW-620 colon) of over 100 µM and a TGI (MDA-MB-435) of over 100 µM. The TGI (A498 renal) was over 100 µM, the TGI (SF-295 CNS) was over 100 µM and the TGI (SF-539 CNS) was over 100 µM. For the same molecule, the TGI (TK-10 renal) was over 100 µM, the TGI (SK-OV-3 ovarian) was over 100 µM and the TGI (BT-549 breast) was over 100 µM. For the same molecule, the TGI (SNB-19 CNS) was over 100 µM.
